This is an account of results in paper PMC9800617, “Pharmacokinetics/pharmacodynamics of polymyxin B in patients with bloodstream infection caused by carbapenem-resistant Klebsiella pneumoniae” (Frontiers in Pharmacology, 2022).

≈ marks a conversion by molar mass, not a printed value. Read-outs that look alike come from different tables or passages of the source. Where only a bound is given, the exact number is not on record here.

In test [1] the test system is carbapenem-resistant K. pneumoniae. The following applies: retrospective, 2021, cited from earlier work. An excerpt: In the present study, microbiological eradication was achieved by the third day of treatment in all eight patients assessed and blood culture remained negative until they had completed the study or withdrew. Clinical improvement occurred in 6 of 8 (75%) of th ...

Test [2] has as its system carbapenem-resistant K. pneumoniae (CRKP) strains. As to the kind of experiment: Broth microdilution MIC (EUCAST). The following applies: Klebsiella pneumoniae. The format is cell-based. How it is done:
The minimum inhibitory concentrations (MICs) to polymyxin B and meropenem of the collected CRKP strains were determined by broth microdilution according to the European Committee on Antimicrobial Susceptibility Testing (EUCAST) guidelines and interpreted according to EUCAST breakpoints of colistin (Breakpoint tables for interpretation of MICs and zone diameters, Version 11.0); Escherichia coli ATCC 25922 was used as the control strain. Polymerase chain reaction (PCR) was employed to determine the presence of resistance genes (KPC, NDM, IMP, OXA, VIM). The primers were the same as in a published protocol and the sample process procedures were adapted a little bit ([Poirel et al., 2011]). To be brief, a single colony of the bacteria were picked and resuspended in ultra-pure water, and total DNA was extracted by heating bacterial suspension at 100°C for 10 min to lysis and release DNA. The suspension was centrifuged for total DNA which was dissolved in supernatant. Then 2 µl total DNA, 1 µl forward and 1 µl reverse primers (10 µM) for each targeted gene, 12.5 µl 2 × Hieff® Robust PCR Master Mix (Yeasen, Shanghai, China) and ultra-pure water were mixed into a 25 µl reaction mixture. […] Finally amplified DNA fragments were analyzed by electrophoresis in a 1% agarose gel. […]
For orientation: Broth dilution looks for growth in wells or tubes with falling amounts of substance.

In a further test the test system is A. baumannii. As to conditions: cited from earlier work. How it is done:
(§1) Monte Carlo simulations were conducted for the probability of target attainment (PTA) analysis to guide the selection of optimal dosage regimens. Different dosage regimens were simulated by the PPK model and AUCss,24h were calculated. […] The maximal reductions in colony f ... || FIGURE 4 Probability of target attainment for different dosage regimens of polymyxin B against common carbapenem-resistant organisms according to PK/PD simulations. (A) Loading dose for three bacterial species. […] In preclinical studies, the fAUC/MIC required for various magnitudes of bacterial killing varied among bacterial strains and infection sites. […] Against P. aeruginosa and A. b ... || (+ 2 further places)

The subject of another test is P. aeruginosa. As to conditions: cited from earlier work. On the procedure:
as §1

In the case of `NCC[C@H](O)C(=O)N[C@@H]1C[C@H](N)[C@@H](O[C@H]2O[C@H](CN)[C@@H](O)[C@H](O)[C@H]2O)[C@H](O)[C@H]1O[C@H]1O[C@H](CO)[C@@H](O)[C@H](N)[C@H]1O` [amikacin], the 30-day mortality in test [1] (amikacin and its combinations for CRKP infection, ref Rodrigues et al.) is 34.5%.
As usually defined, the MIC is the smallest concentration in the dilution series that meets the test's criterion for growth inhibition. `C[C@@H](O)[C@H]1C(=O)N2C(C(=O)O)=C(S[C@@H]3CN[C@H](C(=O)N(C)C)C3)[C@H](C)[C@H]12` [meropenem]: the MIC is above 64 µg/mL in test [2] (9 strains (all except strain No. 2–2), read-out: meropenem MIC) and 4 µg/mL (≈ 10.4 µM) in test [2] (strain No. 2–2, read-out: meropenem MIC).
For the compound ceftazidime-avibactam, in test [1] (CRKP BSI, alone or combined with other antibiotics, ref Tumbarello et al.), the 30-day mortality entry is “around 25%”.
Take colistin: the fAUC24h/MIC target with A. baumannii (2-log10 reduction against A. baumannii, murine thigh infection, ref Cheah et al., 2015) was 17.6; in the test with P. aeruginosa (2-log10 reduction against P. aeruginosa, murine thigh infection, ref Cheah et al., 2015), 13.5. Besides, the fAUC/MIC target was around 17 in the test with A. baumannii (2 log10 kill, mouse thigh infection, A. baumannii, ref Dudhani et al., 2010a, 2010b) and around 17 in the test on P. aeruginosa (2 log10 kill, mouse thigh infection, P. aeruginosa, ref Dudhani et al., 2010a, 2010b).
